Series [1] concerns striatum (a brain structure). The experiment in a line: In vivo injection into the striatum, gliosis (nissl stain). To be noted: rats, 1 μl into the striatum. As to the method: Three hundred g rats were anesthesized with equithesin (0.3 ml/100 g body weight). The skull was surgically exposed and small burr holes were stereotaxically drilled at AP=+1.5, ML=+/−3.0 relative to bregma. An injection cannula was placed at a depth of −4.5 in the striatum (a brain structure). Experimental rats received 1 μl of EAK16 or RAD16 injected into the striatum. Control rats received similar injections of ibotenic acid, a well characterized toxin, as a positive contorl for gliosis, the experimental rats also received 35 μl injection of EAK16 or RAD16 into the thigh muscle (n=2 for each group). The rate were allowed to recover, then sacrificed for tissue harvest.

Series [2] is classed as physicochemical. As to the method: Once formed, the macroscopic membranes are stable in a variety of aqueous solutions, including water, phosphate-buffered saline (PBS), tissue culture medium, serum, and also in ethanol, and can be transferred to and stored in any of these liquids. […] The membranes can be transferred from one solution to another using a solid support such as a spatula. They can be broken by cutting, tearing or shearing.
The stability of the membranes was also tested under a range of temperature, pH and chemical conditions. For these experiments, membranes were formed by adding 20 μl of a 0.5 mM stock solution of EAK16 to 0.5 ml of PBS, and transferred into water or other solutions at test conditions.
The membranes could be frozen and thawed, although care was required in handling the frozen membranes which were brittle. In boiling water, the membranes tended to be sheared by the mechanical agitation. […] (FIGS. 9A and 9B). […] Such strong thermal stability of the defined β-sheet structure of EAK16 is unusual for a small peptide. For example, these findings contrast with the α-helix-forming sixteen residue (Ala, Glu, Lys)-containing peptides studied previously (Marqusee and Baldwin, 1987).
The EAK16 membranes were also tested in water at pH 1.5, 3, 7 and 11 at room temperature for at least a week and at 95° C. for about 4 hours. The membranes were unaffected at these pH. […] It is possible that the complementary interactions between the Glu and Lys side-chains are strong even when the carboxyl groups of the Glu residues have been protonated at pH 1.5 and 3, due to their ability to form hydrogen bonds even when protonated.
The EAK16 membranes were further tested for resistance to chemical denaturation under the following conditions: 1% and 10% sodium dodecyl sulfate (SDS); 1, 2, 3, 4, 5, 6 and 7 M guanidine-HCl; and 1, 2, 3, 4, 5, 6, 7 and 8 M urea. […] The membranes were also tested at 95° C. for 4 hours in 10% SDS; 7 M guanidine-HCl; and at 8 M urea.

Series [3] in a line: Testing of peptides for macroscopic membrane formation (phase-contrast microscope, Congo Red staining). The format is physicochemical. An excerpt:
The effect of length and sequence on membrane formation was examined using several peptides (Table 1 and Example 3). […] Very long peptides, e.g., of about 200 amino acids, may encounter problems due to insolubility and intramolecular interactions which destabilize membrane formation. […] The optimal lengths for membrane formation will probably vary with the amino acid composition.
The EAK12 and EAK16 tested for membrane formation were acetylated and aminylated at both N- and C-terminal ends. […] The peptides were initially dissolved in water (5 mg/ml) or in 23% acetonitrile (10 mg/ml). A volume of 5-10 microliters of the dissolved peptides were applied to the DMEM medium, PBS or water. The formation of the membrane was first observed under a phase-contrast microscope and then, by the naked eye after staining with Congo Red.

Series [4] concerns PC12NGF. The experiment in a line: Cell attachment to biopolymer sheets, normal or Ca++ and Mg++ free medium (Table 6). The format is cell-based, rat. Also on record: key: ++++: strong attachment; +++: moderate attachment; ++: weak attachment; +/−: little or no attachment. The method, then:
(§1) Cells were pretreated in serum-free medium containing 30 μg/ml cyclohexamide for 2 hours before introduction to the peptide membranes. The cells used for the calcium and magnesium-free condition were pre-equilibrated in Ca^++ and Mg^++ free medium containing 5 mM EDTA for 15 minutes before introduction to the peptide membranes. Cells were allowed to attach to the peptide membranes for 30 minutes, 1 and 8 hours at 37° C. The attached cells were shaken for […] on a rotary rocker at 60 r.p.m., then scored under phase contrast microscopy.

For series [5], the system named is PC12. The series is described as above. In kind it is cell-based, rat. Also on record: key: ++++: strong attachment; +++: moderate attachment; ++: weak attachment; +/−: little or no attachment. The method, then:
as §1

The test system of series [6] is PC12 cells. The series can be described thus: In vitro neurite outgrowth on peptide membranes. The format is cell-based, rat. Also on record: Neurite outgrowth, NGF treated, 14 days: key to the marks not given beside the values. The method, then:
The suitability of these materials for supporting in vitro neurite outgrowth was tested by treating biomaterial-attached PC12 cells with nerve growth factor (NGF). This treatment induces PC12 cells to differentiate into sympathetic neurons which can send out long processes called neurites. There was a marked difference in the neurite promoting properties of the two materials tested (EAK16 and RAD16).
Nerve growth factor differentiated PC12 cells have been used extensively in studies of neurite outgrowth. PC12 cells upregulate the number of calcium-dependent and -independent cell adhesion receptors in response to nerve growth factor. Cell attachment and neurite outgrowth from nerve growth factor differentiated PC12 cells was examined on membranes of RAD16 and EAK16 in order to determine whether membranes containing RGD-like sequences would preferentially support these cell activities. Neurite outgrowth on peptide membranes is of interest for potential applications of nerve repair.
Untreated PC12 cells were introduced to peptide membranes of EAK16 and RAD16 suspended in 85% RMMP1, 10% heat inactivated horse serum, 5 fetal bovine serum. Half of the cells were treated with nerve growth factor (50 ng/ml, NGF) and were supplemented with NGF every 3-4 days for 14 days. […] The neurite outgrowth reached greater than 400 μm in length, approximately 15-20 times the cell body, following the contour of the matrices in a three dimensional network.

For series [7], the system named is 3T3 fibroblast cells. The series can be described thus: Cell attachment to biopolymer sheets, with serum or serum-free + cyclohexamide (Table 5). In kind it is cell-based, mouse. Also on record: key: ++++: strong attachment; +++: moderate attachment; ++: weak attachment; +/−: little or no attachment. As to the method: 3T3 fibroblast cells were introduced to membranes of RAD16 and EAK16 in normal serum-containing medium or in serum-free medium containing 30 μg/ml cyclohexamide (cells used for this condition were pretreated in this medium for 2 hours before plating). Cells were allowed to attach to the membranes for 30 minutes, 1 and 8 hours at 37° C. The attached cells were shaken for 10 minutes on a rotary rocker at 60 r.p.m., then scored under phase contrast microscopy. The decrease in cells attached to the membrane in the serum-free condition reflects cell loss due to serum deprivation.

Series [8] deals with 3T3. The experiment in a line: Cell attachment to biopolymer sheets, normal or Ca++ and Mg++ free medium (Table 6). In kind it is cell-based, mouse. To be noted: 3T3, 30 min, Normal Ca^++ & Mg^++ serum-free + Cyclohex. Also on record: key: ++++: strong attachment; +++: moderate attachment; ++: weak attachment; +/−: little or no attachment. As to the method: as §1
The subject of series [9] is NGF differentiated PC12 cells, retonic acid-differentiated human neuroblastoma and mouse cerebellum granule cells. The series can be described thus: Neurite outgrowth on biopolymers, several neuronal cell types. The format is cell-based. An excerpt: The invention further relates to the regeneration of nerves with filaments of the membranes of the present invention. Nerve regeneration can be promoted and directed by transplanting filaments of RAD16 along the correct path to their targets. This would be extremely useful for patients with severed peripheral nerves. Such a technology could be refined to help people with spinal cord injuries.

Where [10] appears, read: NGF-treated PC12 cells, 14 days.

Entries after “also recorded” stand apart in the source; their conditions may differ.

For `N[C@H](C(=O)O)c1cc(=O)[nH]o1` [ibotenic acid, reference compound], the “gliosis / gliotic scarring after brain injection” value in series [1] is “robust gliotic scarring around the injection site”.

As for H-AAAADADARARADAD-OH [RAD16], in series [2], the “stability of membranes in water or PBS” value was “stable in water or PBS for at least a week”. Moreover, the “formation of macroscopic membranes” value in [3] (identical conditions, in words) is reported as “found to form macroscopic membranes”. Further, in series [3] (water), the “membranous structure in Water” value is “−”. Besides, the cell attachment entry in [4] (30 min, Ca^++ & Mg^++ free, EDTA serum-free + Cyclohex) is listed as “++++”; in [4] (30 min, Normal Ca^++ & Mg^++ serum-free + Cyclohex), “++++”; in series [4] (60 min, Ca^++ & Mg^++ free, EDTA serum-free + Cyclohex), “++++”; in series [4] (60 min, Normal Ca^++ & Mg^++ serum-free + Cyclohex), “++++”; in [5] (PC12, 30 min, Ca^++ & Mg^++ free, EDTA serum-free + Cyclohex), “++++”; in series [5] (PC12, 30 min, Normal Ca^++ & Mg^++ serum-free + Cyclohex) it was “++++”. Moreover, the cell attachment result is listed as “++++” in series [5] (PC12, 60 min, Ca^++ & Mg^++ free, EDTA serum-free + Cyclohex); “++++” in series [5] (PC12, 60 min, Normal Ca^++ & Mg^++ serum-free + Cyclohex); “++++” in [7] (3T3, 30 min, medium with serum, no cyclohexamide); “++++” in series [7] (3T3, 30 min, serum-free medium, + cyclohexamide); “++++” in [7] (3T3, 60 min, medium with serum, no cyclohexamide); “++++” in series [7] (3T3, 60 min, serum-free medium, + cyclohexamide). Also, the cell attachment entry in [7] (3T3, 8 hrs, medium with serum, no cyclohexamide) is on record as “++++”; in series [7] (3T3, 8 hrs, serum-free medium, + cyclohexamide), “++”; in series [8], “++++”. In series [6] (NGF-treated PC12 cells on membranes), the “neurite outgrowth of NGF-treated PC12 cells, in words” value was “robust neurite processes; also recorded: Robust neurite outgrowth”. Also, in series [6] (setting [10]), the neurite outgrowth length entry is given as “greater than 400 μm”. The “neurite outgrowth length relative to the cell body” value in series [6] (setting [10]) was 15-20 times the cell body. The “Neurite outgrowth, untreated, 14 days” value in [6] (PC12 cells without NGF, 14 days) is “− (no neurite outgrowth)”. In [6] (PC12 cells, NGF 50 ng/ml, 14 days), the “Neurite outgrowth, NGF treated, 14 days” value was “++++”. Further, the “neurite outgrowth on biopolymers” value in series [9] was “occurs on RAD16-based biopolymers”.

Source of the values: patent publication US6800481B1, “Stable macroscopic membranes formed by self-assembly of amphiphilic peptides and uses therefor” (priority 1992, dated 2004).
